The values below come from patent US7297704B2, “Cycloalkyfused indole, benzothiophene, benzofuran and idene derivatives” (Wyeth, priority 2005, dated 2007).

Experiment [1] has as its target T1, Human 5-HT1A Receptor (Homo sapiens, UniProt P08908).
T1 construct: expressed in transfected cells; host or cells: CHO cells
T1 sequence (P08908 1-422): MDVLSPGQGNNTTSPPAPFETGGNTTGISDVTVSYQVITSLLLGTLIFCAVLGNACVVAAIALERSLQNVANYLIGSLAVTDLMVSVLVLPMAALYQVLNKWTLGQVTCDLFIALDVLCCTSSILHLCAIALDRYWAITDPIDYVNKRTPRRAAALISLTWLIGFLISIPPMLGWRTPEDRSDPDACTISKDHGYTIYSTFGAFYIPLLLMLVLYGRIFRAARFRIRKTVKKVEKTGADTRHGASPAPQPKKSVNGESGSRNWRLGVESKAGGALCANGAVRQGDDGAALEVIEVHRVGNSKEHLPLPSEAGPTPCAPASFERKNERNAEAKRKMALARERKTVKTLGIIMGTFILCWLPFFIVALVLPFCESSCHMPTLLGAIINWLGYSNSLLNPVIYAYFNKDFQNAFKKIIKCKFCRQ
The experiment in a line: cAMP RIA in human 5-HT1A receptor cell line. Format: cell-based. The conditions noted are these: forskolin stimulated cAMP, CHO cells; for Emax: superscript c, read-out: c-AMP, (Emax)^c; for EC50: superscript a, read-out: c-AMP, (EC50)^a. On the procedure: Stably transfected CHO cells were grown in DMEM containing 10% heat inactivated FBS and non-essential amino acids. The cells were plated at a density of 10^6 cells per well in a 96 well plate and incubated for 2 days in a CO2 incubator. On the second day, the media was replaced with 0.1 ml Krebs and incubated 15 minutes at 37° C. The media was then replaced with Krebs buffer containing 500 uM IBMX and incubated 5 minutes at 37° C. Wells were treated with forskolin (1 uM final conc) followed immediately by test compound (0.1 and 1 uM for initial screen) and incubated for an additional 10 min at 37° C. Reaction was terminated by removal of the media and addition of 0.5 ml ice cold assay buffer (supplied in RIA kit). Plates are stored at −20° C. prior to assessment of cAMP formation by RIA. Compounds shown to have no agonist activities were further analyzed for ability to reverse agonist activity. In separate experiments, 6 concentrations of antagonist were preincubated for 20 min prior to the addition of agonist and forskolin. Cells were harvested as described. The cAMP kit is supplied by Amersham and the RIA is performed as per kit instructions. In the initial screen, percent inhibition of forskolin stimulated cAMP was measured. In the secondary screen, IC50 of reversal of agonist activity was measured. Calculations of IC50 were performed by GraphPad Prism. Serotonin, BMY 7378, Buspirone, and 8-OH-DPAT were used as reference compounds.

Experiment [2] addresses T2, serotonin transporter (Rattus norvegicus, UniProt P31652).
T2 construct: frontal cortical membranes prepared from male S.D. rats; from tissue; host or cells: rat frontal cortex membranes (male Sprague-Dawley)
The experiment in a line: 3H-paroxetine binding to the serotonin transporter, rat frontal cortical membranes. The conditions noted are these: values printed without parentheses, 3H-paroxetine 0.1 nM, read-out: rb-5-HH-T, Ki. The method, then: A protocol similar to that used by Cheetham et al. (Neuropharmacol. 32:737, 1993) was used to determine the affinity of compounds for the serotonin transporter. Briefly, frontal cortical membranes prepared from male S.D. rats were incubated with ^3H-paroxetine (0.1 nM) for 60 min at 25° C. All tubes also contained either vehicle, test compound (one to eight concentrations), or a saturating concentration of fluoxetine (10 μM) to define […]. All reactions are terminated by the addition of ice cold Tris buffer followed by rapid filtration using a Tom Tech filtration device to separate bound from free ^3H-paroxetine. Bound radioactivity was quantitated using a Wallac 1205 Beta Plate® counter. Nonlinear regression analysis was used to determine IC50 values which were converted to Ki values using the method of Cheng and Prusoff (Biochem. Pharmacol. 22: 3099, 1973); […].

In experiment [3] the target is T1, Human 5-HT1A Receptor. As to the kind of experiment: 8-OH-DPAT binding, human 5-HT1A receptor cell line. To be noted: stably transfected CHO cells, 8-OH-DPAT ligand 1.5 nM; read-out: h5-HT1A Affinity, Ki. On the procedure: Stably transfected CHO cells were grown in DMEM containing 10% heat inactivated FBS and non-essential amino acids. Cells were scraped off the plate, transferred to centrifuge tubes, and washed twice by centrifugation (2000 rpm for 10 min., 4° C.) in buffer (50 mM Tris, pH 7.5). The resulting pellets were aliquoted and placed at −80° C. On day of assay, the cells were thawed on ice, and resuspended in buffer. The binding assay was performed in a 96 well microtiter plate in a total volume of […]. Non-specific binding was determined in the presence of […] 5HT; final ligand concentration was 1.5 nM. Following a 30 min. incubation at room temperature, the reaction was terminated by the addition of ice cold buffer and rapid filtration through a GF/B filter presoaked for 30 min. in 0.5% PEI. Compounds were initially tested in a single point assay to determine percent inhibition at […]. Subsequently, Ki values were determined for compounds defined to be active. Percent inhibition Ki was determined by RFComp (Lundon Software), with Serotonin 8-OH-DPAT as the reference compounds.

The target in experiment [4] is h-5-HT-T (Homo sapiens, UniProt P31645). As to the kind of experiment: h-5-HT-T IC50 (Table 1, no method described).
h-5-HT-T, sequence (P31645 whole entry): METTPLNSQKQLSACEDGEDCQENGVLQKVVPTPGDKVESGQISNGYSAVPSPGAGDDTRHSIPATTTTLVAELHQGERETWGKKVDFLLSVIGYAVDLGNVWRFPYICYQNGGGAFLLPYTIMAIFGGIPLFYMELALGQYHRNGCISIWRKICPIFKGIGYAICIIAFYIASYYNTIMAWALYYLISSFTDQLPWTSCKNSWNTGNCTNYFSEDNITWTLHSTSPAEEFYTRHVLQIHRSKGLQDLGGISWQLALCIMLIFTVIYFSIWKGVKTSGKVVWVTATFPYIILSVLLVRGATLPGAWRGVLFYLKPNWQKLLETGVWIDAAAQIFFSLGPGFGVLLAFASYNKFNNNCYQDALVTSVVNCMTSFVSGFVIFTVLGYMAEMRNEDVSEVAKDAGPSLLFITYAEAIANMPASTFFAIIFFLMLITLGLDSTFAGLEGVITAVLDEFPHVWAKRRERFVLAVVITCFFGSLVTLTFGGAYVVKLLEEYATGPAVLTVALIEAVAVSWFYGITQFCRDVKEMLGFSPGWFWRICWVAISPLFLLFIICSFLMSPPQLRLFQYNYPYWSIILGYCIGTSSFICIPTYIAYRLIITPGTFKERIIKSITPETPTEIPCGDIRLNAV

Structures are written as SMILES. Structures can show the parent of a compound that is named as a salt. Where two headings read alike, the source gives them in different places.

T2 sequence (P31652 whole entry): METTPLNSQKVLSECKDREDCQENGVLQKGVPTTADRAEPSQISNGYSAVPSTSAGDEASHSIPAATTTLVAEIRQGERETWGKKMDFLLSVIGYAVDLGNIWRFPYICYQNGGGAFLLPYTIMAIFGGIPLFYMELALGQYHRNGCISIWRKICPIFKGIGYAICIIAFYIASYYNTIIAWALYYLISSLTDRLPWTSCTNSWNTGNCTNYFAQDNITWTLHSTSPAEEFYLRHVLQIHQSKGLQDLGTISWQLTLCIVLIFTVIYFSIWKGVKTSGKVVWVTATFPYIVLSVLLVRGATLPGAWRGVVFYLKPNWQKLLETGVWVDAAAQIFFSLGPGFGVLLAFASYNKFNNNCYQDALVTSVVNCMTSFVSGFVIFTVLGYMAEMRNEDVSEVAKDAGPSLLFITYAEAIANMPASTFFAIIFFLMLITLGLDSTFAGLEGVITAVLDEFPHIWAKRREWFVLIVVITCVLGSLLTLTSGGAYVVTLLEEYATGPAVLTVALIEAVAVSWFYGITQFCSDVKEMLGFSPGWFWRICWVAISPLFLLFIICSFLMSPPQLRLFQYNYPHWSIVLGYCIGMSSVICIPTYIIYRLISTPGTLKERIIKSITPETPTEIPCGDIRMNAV

`Cc1ccc2c3c(ccc2n1)OC[C@H](CNC1CCc2c([nH]c4ccc(F)cc24)C1)O3` (mixture of isomers) [Example 46, 6-Fluoro-N-{[(2S)-8-methyl-2,3-dihydro[1,4]dioxino[2,3-f]quinolin-2-yl]methyl}-2,3,4,9-tetrahydro-1H-carbazol-2-amine]: the maximal effect (Emax) in experiment [1] (CHO) worked out at 70%. Also, the EC50 in experiment [1] turned out to be 155 nM. Moreover, the Ki in experiment [2] worked out at 8.55 nM; in experiment [3], 231 nM. Also, the IC50 in experiment [4] worked out at 52.5 ± 1.73 nM.

Turning to `Cc1ccc2c3c(ccc2n1)OC[C@H](CN[C@@H]1CCc2c([nH]c4ccccc24)C1)O3` (single isomer, unassigned) [Example 44, dihydrochloride], in experiment [1], the EC50 turned out to be 225 nM and the Emax came out at 74%. Also, the Ki in experiment [3] amounted to 620 nM. 22.1 ± 2.51 nM corresponded to half-maximal inhibition in experiment [4] (IC50).

For `Cc1ccc2c3c(ccc2n1)OC[C@H](CN(C[C@@H]1CCc2[nH]c4ccc(F)cc4c2C1)C(C)C)O3` [Example 57, N-{[(3R)-6-Fluoro-2,3,4,9-tetrahydro-1H-carbazol-3-yl]methyl}-N-{[(2S)-8-methyl-2,3-dihydro[1,4]dioxino[2,3-f]quinolin-2-yl]methyl}propan-2-amine monohydrochloride monohydrate], the inhibition constant (Ki) was found to be 1570 nM in experiment [2] and 6140 nM in experiment [3]. The compound also had an IC50 in experiment [4] of 1130 ± 109 nM.

`Cc1ccc2c3c(ccc2n1)OC[C@H](CN(C[C@@H]1CCc2[nH]c4ccc(F)cc4c2C1)C1CCCCC1)O3` [Example 60, N-{[(3R)-6-fluoro-2,3,4,9-tetrahydro-1H-carbazol-3-yl]methyl}-N-{[(2S)-8-methyl-2,3-dihydro[1,4]dioxino[2,3-f]quinolin-2-yl]methyl}cyclohexanamine monohydrochloride monohydrate]: in experiment [2], the Ki is 394 nM. Also, in experiment [4], the IC50 was determined as 995 ± 24.4 nM.

`CCC(C)N(C[C@H]1CCc2[nH]c3ccc(F)cc3c2C1)C[C@H]1COc2ccc3nc(C)ccc3c2O1` (stereo partly drawn) [Example 62, N-{[(3S)-6-Fluoro-2,3,4,9-tetrahydro-1H-carbazol-3-yl]methyl}-N-{[(2S)-8-methyl-2,3-dihydro[1,4]dioxino[2,3-f]quinolin-2-yl]methyl}butan-2-amine monohydrochloride monohydrate]: in experiment [3], the Ki was 1960 nM. Further, in experiment [4], the IC50 was 730 ± 9.19 nM.

On to `Cc1ccc2c3c(ccc2n1)OC[C@H](CN(C[C@H]1CCc2[nH]c4ccc(F)cc4c2C1)C1CCCC1)O3` [Example 63, N-{[(3S)-6-Fluoro-2,3,4,9-tetrahydro-1H-carbazol-3-yl]methyl}-N-{[(2S)-8-methyl-2,3-dihydro[1,4]dioxino[2,3-f]quinolin-2-yl]methyl}cyclopentanamine monohydrochloride monohydrate], for which, in experiment [1], the EC50 amounted to 1350 nM and the Emax was determined as 73%. In experiment [2], the Ki stood at 113 nM. The compound further came in with an IC50 in experiment [4] of 389 ± 38.2 nM.

Consider `Cc1ccc2c3c(ccc2n1)OC[C@H](CN(C[C@H]1CCc2[nH]c4ccc(F)cc4c2C1)C1CCCCC1)O3` [Example 64, N-{[(3S)-6-Fluoro-2,3,4,9-tetrahydro-1H-carbazol-3-yl]methyl}-N-{[(2S)-8-methyl-2,3-dihydro[1,4]dioxino[2,3-f]quinolin-2-yl]methyl}cyclohexanamine monohydrochloride monohydrate], for which, in experiment [2], the Ki was determined as 455 nM. This compound also registered an IC50 in experiment [4] of 2490 ± 269 nM.

Regarding `Cc1ccc2c3c(ccc2n1)OC[C@H](CN(CC1CCc2c(c4cc(F)ccc4n2C)C1)C1CCCC1)O3` (stereo partly drawn) [Example 66, N-[(6-Fluoro-9-methyl-2,3,4,9-tetrahydro-1H-carbazol-3-yl)methyl]-N-{[(2S)-8-methyl-2,3-dihydro[1,4]dioxino[2,3-f]quinolin-2-yl]methyl}cyclopentanamine monohydrochloride monohydrate], in experiment [1], the EC50 was determined as 163 nM and the Emax came out at 67.5%. The compound also gave an IC50 in experiment [4] of 62.3 ± 9.19 nM.
